Earlier results, collected in US20230210792A1, “USE OF A COMBINATION OF […] A CXCR-2 INHIBITORS FOR THE TREATMENT OR PREVENTION OF FAMILIAL MEDITERRANEAN FEVER (FMF) AND FLARE-UPS THEREOF” (ARISTEA THERAPEUTICS, INC., priority 2020, published 2023).

Question: With `COc1cc2c(c(OC)c1OC)-c1ccc(OC)c(=O)cc1[C@@H](NC(C)=O)CC2` [Colchicine] as the compound, how does the “Peak concentrations occur in (time to peak)” value (absorbed from the gastrointestinal tract) read?
Answer: 0.5 to 2 h

Question: What about the “eliminated unchanged in the urine” value (metabolized in the liver, excreted primarily in the feces) of the same compound?
Answer: 10-20%
